Converted amounts (≈) assume the structure as drawn. Where two headings read alike, the source gives them in different places. Bounds are passed on as bounds.

Data set [1] deals with PKB Ser473 phosphorylation in Rat1-myr-HA-p110 alpha cells. The data set can be described thus: Reverse protein array assay, PKB Ser473 phosphorylation in Rat1-myr-p110 alpha cells. It counts as cell-based. To be noted: 0.5 h, pAkt Ser473, 30 minutes compound incubation, read-out: p-PKB IC50. Put shortly:
(§1)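 After at least 20 h of culture, the p110 isoform-transfected Rat1 lines receive compound in an 8-step dilution series, keeping DMSO at 0.2%, for 30 minutes. Cells are then lysed and lysates arrayed on chips for fluorescence detection of Ser473-phosphorylated PKB.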

In data set [2] the test system is PKB Ser473 phosphorylation in Rat1-myr-HA-p110 delta cells. Briefly: Reverse protein array assay, PKB Ser473 phosphorylation in Rat1-myr-p110 delta cells. The conditions noted are these: read-out: p-PKB IC50. It counts as cell-based. Put shortly:
as §1

Data set [3] concerns the target T1, PI3K alpha (Homo sapiens, UniProt P42336).
T1 construct: p85(iSH2) fusion partner (see partner chain) (N); His tag (C); made in house; host or cells: baculovirus; Tn5 (Trichoplusia ni) or TiniPro insect cells
Briefly: PI3K alpha kinase assay (Kinase-Glo luminescence). Format: biochemical. Put shortly:
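Compounds are titrated at 8 concentrations and mixed with PI3Kα protein (EMV B1075, 10 nM) in phosphatidylinositol (10 μg/mL). ATP at 1 μM starts the 60-minute room-temperature reaction, which is stopped with Kinase-Glo before luminescence reading. Four-parameter curve fitting gives IC50.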
Background: Kinase-Glo measures the ATP left after a reaction by luminescence.

Data set [4] concerns the target T2, PI3K beta (Homo sapiens, UniProt P42338).
T2 construct: for the full-length p110-b subunit are generated and fused by overlapping PCR; p85(iSH2) fusion partner (see partner chain) (N); His tag (C); made in house; host or cells: baculovirus; Tn5 (Trichoplusia ni) or TiniPro insect cells
The data set can be described thus: PI3K beta kinase assay (Kinase-Glo luminescence). It counts as biochemical. A digest of the protocol: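 Kinase-Glo luminescence after a 60 min room-temperature reaction gives remaining ATP. The reaction holds 25 nM p85(iSH2)-p110β full-length His-tagged construct, 1 μM ATP, 10 μg/mL PI, and eight compound concentrations at 0.45% DMSO final. IC50 values come from a four-parameter logistic fit.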

Data set [5] concerns the target T3, PI3K gamma (Homo sapiens, UniProt P48736).
T3 construct: His tag (C); made in house; host or cells: baculovirus (pVL1393); Tn5 or TiniPro insect cells; construct from Roger Williams lab, MRC LMB
Briefly: PI3K gamma kinase assay (Kinase-Glo luminescence). It counts as biochemical. How it is done: In a more preferred assay, the kinase reaction is performed in a final volume of 10 μL per well of a low volume non binding CORNING, 384 well black plate (Cat. No. #3676). The final concentrations of ATP and phosphatidyl inositol (PI) in the assay are 1 μM and 10 μg/mL respectively. The reaction is started by the addition of ATP.
The components of the assay are added per well as follows:
[…] in 90% DMSO per well, in columns 1-20, 8 concentrations (1/3 and 1/3.33 serial dilution step) in single. • Low control: […] of 90% DMSO in half the wells of columns 23-24 (0.45% in final). • High control: […] of reference compound (e.g. compound of Example 7 in WO 2006/122806) in the other half of columns 23-24 (2.5 μM in final). • Standard: […] of reference compound as just mentioned diluted as the test compounds in columns 21-22 • 20 mL ‘buffer’ are prepared per assay: • 200 μL of 1M TRIS HCl pH7.5 (10 mM in final) • 60 μL of 1M MgCl2 (3 mM in final) • 500 μL of 2M NaCl (50 mM in final) • 100 μL of 10% CHAPS (0.05% in final) • 200 μL of 100 mM DTT (1 mM in final) • 18.94 mL of nanopure water • 10 mL ‘PI’ are prepared per assay: • 200 μL of 1 mg/ml L-alpha-Phosphatidylinositol (Liver Bovine, Avanti Polar Lipids Cat. No. 840042C MW=909.12) prepared in 3% OctylGlucoside (10 μg/ml in final) • 9.8 mL of ‘buffer’ • 10 mL ‘ATP’ are prepared per assay: • 6.7 μL of 3 mM stock of ATP giving a final concentration of 1 μM per well • 10 mL of ‘buffer’ • 2.5 mL of each PI3K construct are prepared per assay in ‘PI’ with the following final concentration: • 10 nM PI3K alfa EMV B1075 • 25 nM beta EMV BV949 • 10 nM delta EMV BV1060 • 150 nM gamma EMV BV950 • 5 μL of ‘PI/PI3K’ are added per well. • 5 μl ‘ATP’ are added per well to start the reaction. • The plates are then incubated at room temperature for 60 minutes (alfa, beta, delta) or 120 minutes (gamma). • The reaction is terminated by the addition of 10 μL Kinase-Glo (Promega Cat. No. #6714). • The assay plates are read after 10 minutes in Synergy 2 reader (BioTek, Vermont USA) with an integration time of 100 milliseconds and sensitivity set to 191. • Output: The High control is around 60'000 counts and the Low control is 30'000 or lower • This luminescence assay gives a useful Z′ ratio between 0.4 and 0.7
IC50 is determined by a four parameter curve fitting routine that comes along with “excel fit”. […] Alternatively, IC50 values are calculated using idbsXLfit model 204, which is a 4 parameter logistic model.

Data set [6] in a line: Solubility at pH 6.8. It counts as physicochemical. Put shortly:
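Following the procedure of Zhou et al. (2007), compound solubility was determined at pH 6.8.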

The test system of data set [7] is PKB Ser473 phosphorylation in Rat1-myr-HA-p110 beta cells. The data set can be described thus: Reverse protein array assay, PKB Ser473 phosphorylation in Rat1-myr-p110 beta cells. The conditions noted are these: 0.5 h, pAkt Ser473, 30 minutes incubation, read-out: p-PKB IC50. Format: cell-based. A digest of the protocol: as §1
The target in data set [8] is T4, PI3K delta (Homo sapiens, UniProt O00329).
T4 construct: for the full-length p110-d subunit are generated and fused by overlapping PCR; p85(iSH2) fusion partner (see partner chain) (N); His tag (C); made in house; host or cells: baculovirus; Tn5 (Trichoplusia ni) or TiniPro insect cells
T4 sequence (O00329 with tags, fused parts or gaps limits assumed): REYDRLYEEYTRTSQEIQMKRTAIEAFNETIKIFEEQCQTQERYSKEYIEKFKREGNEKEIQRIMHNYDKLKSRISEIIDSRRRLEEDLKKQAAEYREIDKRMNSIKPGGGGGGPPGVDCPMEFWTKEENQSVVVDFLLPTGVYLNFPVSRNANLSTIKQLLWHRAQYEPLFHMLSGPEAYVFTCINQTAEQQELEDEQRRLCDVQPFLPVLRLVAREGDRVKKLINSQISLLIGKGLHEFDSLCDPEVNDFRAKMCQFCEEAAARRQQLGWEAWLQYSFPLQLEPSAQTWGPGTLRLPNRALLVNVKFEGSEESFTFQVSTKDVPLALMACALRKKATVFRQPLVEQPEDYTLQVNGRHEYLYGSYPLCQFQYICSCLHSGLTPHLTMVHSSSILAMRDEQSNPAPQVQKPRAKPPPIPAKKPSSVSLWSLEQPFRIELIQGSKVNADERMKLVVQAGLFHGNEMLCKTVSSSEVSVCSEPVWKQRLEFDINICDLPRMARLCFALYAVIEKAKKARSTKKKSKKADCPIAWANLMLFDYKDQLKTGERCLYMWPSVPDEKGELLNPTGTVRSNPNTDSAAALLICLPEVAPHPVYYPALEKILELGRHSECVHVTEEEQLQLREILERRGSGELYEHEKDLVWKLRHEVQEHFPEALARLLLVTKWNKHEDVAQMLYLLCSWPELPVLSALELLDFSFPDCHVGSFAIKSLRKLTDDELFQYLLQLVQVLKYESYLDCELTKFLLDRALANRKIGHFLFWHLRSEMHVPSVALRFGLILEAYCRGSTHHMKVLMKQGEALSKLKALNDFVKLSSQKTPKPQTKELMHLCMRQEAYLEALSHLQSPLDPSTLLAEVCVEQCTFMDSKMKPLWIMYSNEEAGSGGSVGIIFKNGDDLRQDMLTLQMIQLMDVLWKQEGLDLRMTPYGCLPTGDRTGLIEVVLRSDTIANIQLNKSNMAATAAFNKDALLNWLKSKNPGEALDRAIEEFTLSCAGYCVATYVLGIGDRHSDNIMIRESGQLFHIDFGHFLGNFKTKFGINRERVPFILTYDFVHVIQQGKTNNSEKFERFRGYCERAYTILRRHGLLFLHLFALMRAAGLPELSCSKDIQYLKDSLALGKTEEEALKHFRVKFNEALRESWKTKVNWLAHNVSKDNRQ
Briefly: PI3K delta kinase assay (Kinase-Glo luminescence). Format: biochemical. Put shortly:
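ATP 1 μM, PI 10 μg/mL, PI3Kδ construct BV1060 10 nM (final); 10 mM Tris pH 7.5, 3 mM MgCl2, 50 mM NaCl, 0.05% CHAPS, 1 mM DTT; 60 min RT; Kinase-Glo stop, luminescence.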

Data set [9] concerns the target T5, mTOR (Homo sapiens, UniProt P42345).
T5 construct: purchased Invitrogen Corporation (Carlsbad/CA, USA) PV4753
Briefly: Biochemical assay for m-TOR by TR-FRET. The conditions noted are these: 8 μM ATP, 400 nM GFP-4EBP1, 0.5 nM mTOR. A digest of the protocol:
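TR-FRET read-out: Tb-labelled anti-p4EBP1 pThr46 antibody (0.5 nM), added in EDTA to stop the reaction, detects phosphorylated GFP-4EBP1 after 15 min. Kinase step used 0.5 nM mTOR, 400 nM substrate, 8 μM ATP, MnCl2-containing HEPES buffer pH 7.5, room temperature.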

The mark [10] stands for this setting: pH 6.8, aqueous buffer, thermodynamic from solid, read-out: solubility.

T3 sequence (P48736 144-1102 limits assumed): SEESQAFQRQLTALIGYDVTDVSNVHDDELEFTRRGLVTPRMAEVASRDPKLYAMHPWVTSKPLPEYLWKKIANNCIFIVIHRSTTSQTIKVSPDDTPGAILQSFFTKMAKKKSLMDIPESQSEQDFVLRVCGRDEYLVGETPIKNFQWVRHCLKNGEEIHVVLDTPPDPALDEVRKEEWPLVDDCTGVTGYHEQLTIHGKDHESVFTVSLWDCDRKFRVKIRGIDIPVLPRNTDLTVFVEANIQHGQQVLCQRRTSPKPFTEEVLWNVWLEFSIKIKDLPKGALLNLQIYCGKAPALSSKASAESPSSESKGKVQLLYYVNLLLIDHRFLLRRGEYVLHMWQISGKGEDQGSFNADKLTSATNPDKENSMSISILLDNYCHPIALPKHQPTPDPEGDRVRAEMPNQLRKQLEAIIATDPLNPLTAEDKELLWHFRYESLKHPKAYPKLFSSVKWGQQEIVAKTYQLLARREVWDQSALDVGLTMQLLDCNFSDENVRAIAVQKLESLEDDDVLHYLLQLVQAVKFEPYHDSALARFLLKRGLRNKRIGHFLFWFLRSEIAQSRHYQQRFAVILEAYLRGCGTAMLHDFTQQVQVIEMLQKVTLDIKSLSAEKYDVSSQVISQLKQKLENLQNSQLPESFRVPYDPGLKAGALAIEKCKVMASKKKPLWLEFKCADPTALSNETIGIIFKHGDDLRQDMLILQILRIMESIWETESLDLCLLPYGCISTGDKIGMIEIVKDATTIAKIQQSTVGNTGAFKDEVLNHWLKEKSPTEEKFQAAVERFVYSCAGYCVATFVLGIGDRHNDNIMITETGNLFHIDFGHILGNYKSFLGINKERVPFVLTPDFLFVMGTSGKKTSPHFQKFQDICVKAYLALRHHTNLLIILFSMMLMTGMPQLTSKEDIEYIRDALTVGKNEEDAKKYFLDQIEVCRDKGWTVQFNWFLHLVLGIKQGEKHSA
T1 sequence (P42336 with tags, fused parts or gaps limits assumed): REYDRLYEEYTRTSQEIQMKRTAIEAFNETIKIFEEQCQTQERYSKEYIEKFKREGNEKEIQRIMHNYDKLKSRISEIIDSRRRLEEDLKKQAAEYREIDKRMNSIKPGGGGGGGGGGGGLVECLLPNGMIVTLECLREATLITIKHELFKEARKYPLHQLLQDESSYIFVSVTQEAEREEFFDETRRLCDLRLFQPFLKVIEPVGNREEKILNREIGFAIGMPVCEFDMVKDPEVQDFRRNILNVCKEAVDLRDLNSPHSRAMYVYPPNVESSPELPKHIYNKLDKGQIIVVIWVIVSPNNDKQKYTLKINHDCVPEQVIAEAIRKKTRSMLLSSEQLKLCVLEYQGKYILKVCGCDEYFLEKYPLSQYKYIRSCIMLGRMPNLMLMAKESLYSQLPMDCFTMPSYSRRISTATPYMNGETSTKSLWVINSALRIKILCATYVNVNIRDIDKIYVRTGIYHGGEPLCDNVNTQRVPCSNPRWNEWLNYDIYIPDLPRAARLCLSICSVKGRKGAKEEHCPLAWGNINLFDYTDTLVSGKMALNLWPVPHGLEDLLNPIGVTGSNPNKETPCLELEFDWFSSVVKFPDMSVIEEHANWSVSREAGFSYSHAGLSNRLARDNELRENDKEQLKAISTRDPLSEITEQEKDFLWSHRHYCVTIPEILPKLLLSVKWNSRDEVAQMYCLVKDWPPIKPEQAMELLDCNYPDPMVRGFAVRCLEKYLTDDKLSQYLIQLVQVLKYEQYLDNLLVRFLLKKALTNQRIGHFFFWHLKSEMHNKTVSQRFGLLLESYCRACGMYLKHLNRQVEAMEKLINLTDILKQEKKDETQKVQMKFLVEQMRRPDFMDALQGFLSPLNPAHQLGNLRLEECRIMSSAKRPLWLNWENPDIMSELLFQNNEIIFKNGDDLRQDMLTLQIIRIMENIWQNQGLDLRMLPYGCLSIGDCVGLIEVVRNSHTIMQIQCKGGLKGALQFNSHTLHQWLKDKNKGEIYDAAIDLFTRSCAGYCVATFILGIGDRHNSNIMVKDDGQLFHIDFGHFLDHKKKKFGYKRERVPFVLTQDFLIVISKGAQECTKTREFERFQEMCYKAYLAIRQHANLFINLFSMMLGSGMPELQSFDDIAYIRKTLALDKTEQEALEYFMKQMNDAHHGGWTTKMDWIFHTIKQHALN
T2 sequence (P42338 with tags, fused parts or gaps limits assumed): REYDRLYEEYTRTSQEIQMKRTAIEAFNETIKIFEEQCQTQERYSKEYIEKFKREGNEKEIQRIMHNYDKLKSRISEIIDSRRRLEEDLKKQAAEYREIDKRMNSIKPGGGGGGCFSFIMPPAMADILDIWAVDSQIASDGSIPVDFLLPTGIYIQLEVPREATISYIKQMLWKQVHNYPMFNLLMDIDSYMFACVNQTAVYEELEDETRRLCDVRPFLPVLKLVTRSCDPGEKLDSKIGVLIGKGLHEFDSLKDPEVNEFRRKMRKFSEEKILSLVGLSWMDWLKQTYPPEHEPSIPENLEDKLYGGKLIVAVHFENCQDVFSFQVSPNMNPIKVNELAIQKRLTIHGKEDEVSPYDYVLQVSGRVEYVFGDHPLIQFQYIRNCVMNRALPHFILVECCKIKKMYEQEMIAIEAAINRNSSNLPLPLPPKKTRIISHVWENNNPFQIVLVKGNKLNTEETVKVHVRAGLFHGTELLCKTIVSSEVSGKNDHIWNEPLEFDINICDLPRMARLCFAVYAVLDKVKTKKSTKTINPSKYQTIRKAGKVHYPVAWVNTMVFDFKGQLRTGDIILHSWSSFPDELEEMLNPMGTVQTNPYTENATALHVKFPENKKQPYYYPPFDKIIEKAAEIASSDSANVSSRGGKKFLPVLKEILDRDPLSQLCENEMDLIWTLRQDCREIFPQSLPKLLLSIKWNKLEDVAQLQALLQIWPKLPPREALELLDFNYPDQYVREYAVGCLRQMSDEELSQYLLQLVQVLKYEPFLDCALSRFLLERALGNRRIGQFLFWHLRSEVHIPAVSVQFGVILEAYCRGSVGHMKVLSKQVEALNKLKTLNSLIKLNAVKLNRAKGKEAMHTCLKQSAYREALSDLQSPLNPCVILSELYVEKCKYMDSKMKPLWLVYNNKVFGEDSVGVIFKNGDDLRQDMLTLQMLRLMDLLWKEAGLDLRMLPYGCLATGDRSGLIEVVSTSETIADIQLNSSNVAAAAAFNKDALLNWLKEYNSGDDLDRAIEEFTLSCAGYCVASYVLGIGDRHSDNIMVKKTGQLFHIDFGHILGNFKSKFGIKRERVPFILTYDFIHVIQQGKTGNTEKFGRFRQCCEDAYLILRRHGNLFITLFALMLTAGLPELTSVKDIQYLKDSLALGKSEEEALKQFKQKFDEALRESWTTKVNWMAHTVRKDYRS

In the case of `COc1ccc(-c2ccc3ncc4c(c3c2)n(-c2c(C)cnn2C)c(=O)n4C)cc1OC` [Example 1.7, 8-(3,4-Dimethoxy-phenyl)-1-(2,4-dimethyl-2H-pyrazol-3-yl)-3-methyl-1,3-dihydro-imidazo[4,5-c]quinolin-2-one], the IC50 in [1] worked out at 82 nM; in data set [2], 249 nM; in data set [3], 59 nM; in [4], 152 nM; in [5], 120 nM; in data set [7], 147 nM. Further, the 50% inhibitory concentration (IC50) in data set [8] turned out to be 169 nM. Further, the solubility in data set [6] (setting [10]) turned out to be 6 µg/mL (≈ 14 µM).

For the compound `COc1ccc(-c2ccc3ncc4c(c3c2)n(-c2c(C)cnn2C)c(=O)n4C)cn1` [Example 2.1, 1-(2,4-Dimethyl-2H-pyrazol-3-yl)-8-(6-methoxy-pyridin-3-yl)-3-methyl-1,3-dihydro-imidazo[4,5-c]quinolin-2-one], the IC50 is 552 nM in data set [1]; 946 nM in data set [2]; 94 nM in data set [3]; 241 nM in data set [4]; 140 nM in data set [5]; 795 nM in data set [7]. Besides, the IC50 in data set [8] was 432 nM. For the same compound, the solubility in [6] (setting [10]) turned out to be 8 µg/mL (≈ 20 µM).

Consider `Cc1nn(C)c(C)c1-n1c(=O)n(C)c2cnc3ccc(-c4cccnc4)cc3c21` [Example 10.1, 3-Methyl-8-pyridin-3-yl-1-(1,3,5-trimethyl-1H-pyrazol-4-yl)-1,3-dihydro-imidazo[4,5-c]quinolin-2-one], for which the IC50 in data set [1] stood at 594 nM; in data set [2] it was 1630 nM; in data set [3], 136 nM; in data set [4], 799 nM; in data set [5], 273 nM; in data set [7], 937 nM. For the same compound, the IC50 in data set [8] is 292 nM. Further, the solubility in [6] (setting [10]) is above 384 µg/mL.

For the compound `Cc1nn(C)c(C)c1-n1c(=O)n(C)c2cnc3ccc(-c4ccccc4)cc3c21` [Example 37.2, 3-Methyl-8-phenyl-1-(1,3,5-trimethyl-1H-pyrazol-4-yl)-1,3-dihydro-imidazo[4,5-c]quinolin-2-one], the results for the IC50 in [3], in data set [5] and in data set [8] were 250 nM, 335 nM and 465 nM, respectively. The solubility in data set [6] (setting [10]) was 355 µg/mL (≈ 926 µM).

For the compound `Cc1nn(C)cc1-n1c(=O)n(C)c2cnc3ccc(-c4ccc(C(=O)N(C)C)cc4)cc3c21` [Example 48, 4-[1-(1,3-Dimethyl-1H-pyrazol-4-yl)-3-methyl-2-oxo-2,3-dihydro-1H-imidazo[4,5-c]quinolin-8-yl]-N,N-dimethyl-benzamide], the IC50 in data set [5] was 760 nM. The solubility in data set [6] (pH 6.8) was found to be 2 µg/mL (≈ 4.54 µM).

Consider `Cc1nn(C)c(C)c1-n1c(=O)n(C)c2cnc3ccc(-c4cccc(S(=O)(=O)N(C)C)c4)cc3c21` [Example 53.2, N,N-Dimethyl-3-[3-methyl-2-oxo-1-(1,3,5-trimethyl-1H-pyrazol-4-yl)-2,3-dihydro-1H-imidazo[4,5-c]quinolin-8-yl]-benzenesulfonamide], for which the IC50 stood at 375 nM in data set [1]; 672 nM in [2]; 94 nM in [3]; 843 nM in data set [4]; 183 nM in [5]; 634 nM in [7]. Besides, in data set [8], the IC50 amounted to 93 nM. In [6] (setting [10]), the solubility amounted to 40 µg/mL (≈ 81.5 µM).

Take `CCOc1cncc(-c2ccc3ncc4c(c3c2)n(-c2c(C)nn(C)c2C)c(=O)n4C)c1` [Example 56.3, 8-(5-Ethoxy-pyridin-3-yl)-3-methyl-1-(1,3,5-trimethyl-1H-pyrazol-4-yl)-1,3-dihydro-imidazo[4,5-c]quinolin-2-one]: the half-inhibitory concentration (IC50) was 304 nM in data set [1]; 82 nM in data set [3]; 228 nM in data set [4]; 257 nM in data set [5]; 129 nM in data set [8]. Moreover, the solubility in data set [6] (setting [10]) was 300 µg/mL (≈ 700 µM).

On to `Cc1nn(C)cc1-n1c(=O)n(C)c2cnc3ccc(-c4cnccn4)cc3c21` [Example 115, 1-(1,3-Dimethyl-1H-pyrazol-4-yl)-3-methyl-8-pyrazin-2-yl-1,3-dihydro-imidazo[4,5-c]quinolin-2-one], for which the IC50 in data set [1] amounted to 208 nM; in data set [3], 148 nM; in data set [5] it was 851 nM; in data set [7] it was 308 nM; in [8], 800 nM. Further, the solubility in data set [6] (setting [10]) is 128 µg/mL (≈ 345 µM).

As for `Cc1nn(C)cc1-n1c(=O)n(C)c2cnc3ccc(-c4ccc(-c5nn[nH]n5)nc4)cc3c21` [Example 123, 1-(1,3-Dimethyl-1H-pyrazol-4-yl)-3-methyl-8-[6-(2H-tetrazol-5-yl)-pyridin-3-yl]-1,3-dihydro-imidazo[4,5-c]quinolin-2-one], the IC50 in data set [9] amounted to 232 nM; in data set [3], 446 nM; in data set [5], 173 nM. In addition, the solubility in data set [6] (setting [10]) came to 65 µg/mL (≈ 148 µM).

Broadly, the IC50 is the concentration at which inhibition is half-maximal. A word on the solubility: it is how much of the substance goes into solution per volume.

(Values after US20140005163A1 (NOVARTIS AG, priority 2010, published 2014).)
